Molecular target: human D-amino acid oxidase (hDAAO) (Homo sapiens (Human), UniProt P14920)
Assay: In vitro human D-amino acid oxidase (hDAAO) activity, D-Serine/Amplex Red fluorescence
Type: biochemical
Conditions: D-Serine substrate, 20 min
Procedure: The hDAAO inhibitory activities were measured by using D-Serine as a substrate to produce H2O2. The produced H2O2 would be oxidized by peroxidase, and the produced free radicals would further react with Amplex Red reagent to emit fluorescence. The intensity of fluorescence at 590 nm would be measured to represent the activity of hDAAO. All compounds were dissolved in DMSO. Each compound was diluted with DMSO in 3-fold serial dilution to create a dose response curve. Each sample was added in triplicate, 1 µL/well, into 96-well black plates. Positive control wells were added with 1 μL of DMSO. Then 49 μL of assay buffer (100 mM Tris-HCl, pH 8.5) containing 1.2 ng/mL hDAAO, 900 nM FAD, 0.2 units/mL HRP, and 100 μM Amplex Red was added to each well of the plate using a multichannel pipette. Next, 50 μL of 100 mM D-Serine in assay buffer was added. The reaction plates were then incubated in the dark at room temperature. The fluorescence readout was detected at 0 and 20 mins by Molecular Device Gemini EM fluorescence reader using the following settings: excitation filter 530 nm, and emission filter 590 nm. The percentage of inhibition values for each well was calculated with the following equation: The percentage of inhibition=(fluorescence sample, 20 min−fluorescence sample, 0 min)/(fluorescence DMSO, 20 min−fluorescence DMSO, 0 min)×100%
The nonlinear curve fitting model in GraphPad Prism was used to calculate IC50 value for each compound.

human D-amino acid oxidase (hDAAO), sequence (P14920 whole entry): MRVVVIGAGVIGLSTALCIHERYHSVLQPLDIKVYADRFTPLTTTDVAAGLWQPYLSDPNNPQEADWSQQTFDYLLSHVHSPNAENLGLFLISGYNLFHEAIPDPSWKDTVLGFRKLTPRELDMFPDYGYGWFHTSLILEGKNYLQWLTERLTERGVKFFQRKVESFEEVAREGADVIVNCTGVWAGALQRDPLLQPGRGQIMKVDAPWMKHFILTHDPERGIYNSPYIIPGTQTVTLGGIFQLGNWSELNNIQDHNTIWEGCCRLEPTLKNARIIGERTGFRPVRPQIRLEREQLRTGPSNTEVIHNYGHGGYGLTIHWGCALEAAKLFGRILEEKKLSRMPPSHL

O=C(OC[C@H]1O[C@@H](OC(=O)c2cc(O)c(O)c(OC(=O)c3cc(O)c(O)c(OC(=O)c4cc(O)c(O)c(O)c4)c3)c2)[C@H](OC(=O)c2cc(O)c(O)c(OC(=O)c3cc(O)c(O)c(OC(=O)c4cc(O)c(O)c(O)c4)c3)c2)[C@@H]1OC(=O)c1cc(O)c(O)c(OC(=O)c2cc(O)c(O)c(OC(=O)c3cc(O)c(O)c(O)c3)c2)c1)c1cc(O)c(O)c(OC(=O)c2cc(O)c(O)c(OC(=O)c3cc(O)c(O)c(O)c3)c2)c1 [Compound 144, (2S,3R,4R,5R)-5-(((3-((3,4-dihydroxy-5-((3,4,5-trihydroxybenzoyl)oxy)benzoyl)oxy)-4,5-dihydroxybenzoyl)oxy)methyl)tetrahydrofuran-2,3,4-triyl tris(3-((3,4-dihydroxy-5-((3,4,5-trihydroxybenzoyl)oxy)benzoyl)oxy)-4,5-dihydroxybenzoate)]
IC50: 8 nM

O=C(Oc1cc(C(=O)Oc2cc(C(=O)Oc3cc(C(=O)Oc4cc(C(=O)O[C@H]5OC[C@@H](OC(=O)c6cc(O)c(O)c(OC(=O)c7cc(O)c(O)c(OC(=O)c8cc(O)c(O)c(OC(=O)c9cc(O)c(O)c(OC(=O)c%10cc(O)c(O)c(O)c%10)c9)c8)c7)c6)[C@H](OC(=O)c6cc(O)c(O)c(OC(=O)c7cc(O)c(O)c(OC(=O)c8cc(O)c(O)c(OC(=O)c9cc(O)c(O)c(OC(=O)c%10cc(O)c(O)c(O)c%10)c9)c8)c7)c6)[C@H]5OC(=O)c5cc(O)c(O)c(OC(=O)c6cc(O)c(O)c(OC(=O)c7cc(O)c(O)c(OC(=O)c8cc(O)c(O)c(OC(=O)c9cc(O)c(O)c(O)c9)c8)c7)c6)c5)cc(O)c4O)cc(O)c3O)cc(O)c2O)cc(O)c1O)c1cc(O)c(O)c(O)c1 [Compound 123, (2R,3R,4S,5R)-tetrahydro-2H-pyran-2,3,4,5-tetrayl tetrakis(3-((3-((3-((3,4-dihydroxy-5-((3,4,5-trihydroxybenzoyl)oxy)benzoyl)oxy)-4,5-dihydroxybenzoyl)oxy)-4,5-dihydroxybenzoyl)oxy)-4,5-dihydroxybenzoate)]
IC50: 2.4 nM

O=C(O)c1cc(O)c(O)c(OC(=O)c2cc(O)c(O)c(OC(=O)c3cc(O)c(O)c(OC(=O)c4cc(O)c(O)c(OC(=O)c5cc(O)c(O)c(OC(=O)c6cc(CCc7cccc8c7CCCC8)n[nH]6)c5)c4)c3)c2)c1 [Compound 42, 3-((3-((3-((3-((3,4-dihydroxy-5-((3-(2-(5,6,7,8-tetrahydronaphthalen-1-yl)ethyl)-1H-pyrazole-5-carbonyl)oxy)benzoyl)oxy)-4,5-dihydroxybenzoyl)oxy)-4,5-dihydroxybenzoyl)oxy)-4,5-dihydroxybenzoyl)oxy)-4,5-dihydroxybenzoic acid]
IC50: 31 nM

O=C(Oc1cc(C(=O)Oc2cc(C(=O)Oc3cc(C(=O)Oc4cc(C(=O)OC5CC5)cc(O)c4O)cc(O)c3O)cc(O)c2O)cc(O)c1O)c1cc(O)c(O)c(O)c1 [Compound 98, 5-((5-((5-((5-(cyclopropoxycarbonyl)-2,3-dihydroxyphenoxy)carbonyl)-2,3-dihydroxyphenoxy)carbonyl)-2,3-dihydroxyphenoxy)carbonyl)-2,3-dihydroxyphenyl 3,4,5-trihydroxybenzoate]
IC50: 33 nM

O=C(O)c1cc(O)c(O)c(OC(=O)c2cc(O)c(O)c(OC(=O)c3cc(O)c(O)c(OC(=O)c4cc(O)c(O)c(OC(=O)c5cc(O)c(O)c(OC(=O)c6cc(CCc7ccc(F)cc7)n[nH]6)c5)c4)c3)c2)c1 [Compound 50, 3-((3-((3-((3-((3-((3-(4-fluorophenethyl)-1H-pyrazole-5-carbonyl)oxy)-4,5-dihydroxybenzoyl)oxy)-4,5-dihydroxybenzoyl)oxy)-4,5-dihydroxybenzoyl)oxy)-4,5-dihydroxybenzoyl)oxy)-4,5-dihydroxybenzoic acid]
IC50: 38 nM

O=C(OC[C@H]1O[C@H](OC(=O)c2cc(O)c(O)c(OC(=O)c3cc(O)c(O)c(O)c3)c2)[C@H](OC(=O)c2cc(O)c(O)c(OC(=O)c3cc(O)c(O)c(O)c3)c2)[C@@H]1OC(=O)c1cc(O)c(O)c(OC(=O)c2cc(O)c(O)c(O)c2)c1)c1cc(O)c(O)c(OC(=O)c2cc(O)c(O)c(O)c2)c1 [Compound 134, (2R,3R,4R,5R)-5-(((3,4-dihydroxy-5-((3,4,5-trihydroxybenzoyl)oxy)benzoyl)oxy)methyl)tetrahydrofuran-2,3,4-triyl tris(3,4-dihydroxy-5-((3,4,5-trihydroxybenzoyl)oxy)benzoate)]
IC50: 8 nM

O=C(OC[C@H]1O[C@H](OC(=O)c2cc(O)c(O)c(OC(=O)c3cc(O)c(O)c(OC(=O)c4cc(O)c(O)c(OC(=O)c5cc(O)c(O)c(OC(=O)c6cc(O)c(O)c(O)c6)c5)c4)c3)c2)[C@H](OC(=O)c2cc(O)c(O)c(OC(=O)c3cc(O)c(O)c(OC(=O)c4cc(O)c(O)c(OC(=O)c5cc(O)c(O)c(OC(=O)c6cc(O)c(O)c(O)c6)c5)c4)c3)c2)[C@@H]1OC(=O)c1cc(O)c(O)c(OC(=O)c2cc(O)c(O)c(OC(=O)c3cc(O)c(O)c(OC(=O)c4cc(O)c(O)c(OC(=O)c5cc(O)c(O)c(O)c5)c4)c3)c2)c1)c1cc(O)c(O)c(OC(=O)c2cc(O)c(O)c(OC(=O)c3cc(O)c(O)c(OC(=O)c4cc(O)c(O)c(OC(=O)c5cc(O)c(O)c(O)c5)c4)c3)c2)c1 [Compound 140, (2R,3R,4R,5R)-5-(((3-((3-((3-((3,4-dihydroxy-5-((3,4,5-trihydroxybenzoyl)oxy)benzoyl)oxy)-4,5-dihydroxybenzoyl)oxy)-4,5-dihydroxybenzoyl)oxy)-4,5-dihydroxybenzoyl)oxy)methyl)tetrahydrofuran-2,3,4-triyl tris(3-((3-((3-((3,4-dihydroxy-5-((3,4,5-trihydroxybenzoyl)oxy)benzoyl)oxy)-4,5-dihydroxybenzoyl)oxy)-4,5-dihydroxybenzoyl)oxy)-4,5-dihydroxybenzoate)]
IC50: 3 nM

O=C(OC[C@H]1O[C@H](OC(=O)c2cc(O)c(O)c(OC(=O)c3cc(O)c(O)c(OC(=O)c4cc(O)c(O)c(O)c4)c3)c2)[C@H](OC(=O)c2cc(O)c(O)c(OC(=O)c3cc(O)c(O)c(OC(=O)c4cc(O)c(O)c(O)c4)c3)c2)[C@@H]1OC(=O)c1cc(O)c(O)c(OC(=O)c2cc(O)c(O)c(OC(=O)c3cc(O)c(O)c(O)c3)c2)c1)c1cc(O)c(O)c(OC(=O)c2cc(O)c(O)c(OC(=O)c3cc(O)c(O)c(O)c3)c2)c1 [Compound 136, (2R,3R,4R,5R)-5-(((3-((3,4-dihydroxy-5-((3,4,5-trihydroxybenzoyl)oxy)benzoyl)oxy)-4,5-dihydroxybenzoyl)oxy)methyl)tetrahydrofuran-2,3,4-triyl tris(3-((3,4-dihydroxy-5-((3,4,5-trihydroxybenzoyl)oxy)benzoyl)oxy)-4,5-dihydroxybenzoate)]
IC50: 6 nM

O=C(O)c1cc(O)c(O)c(OC(=O)c2cc(O)c(O)c(OC(=O)c3cc(O)c(O)c(OC(=O)c4cc(O)c(O)c(OC(=O)c5cc(O)c(O)c(OC(=O)c6cc(O)c(O)c(OC(=O)c7cc(O)c(O)c(O)c7)c6)c5)c4)c3)c2)c1 [Compound 22, 3-((3-((3-((3-((3-((3,4-dihydroxy-5-((3,4,5-trihydroxybenzoyl)oxy)benzoyl)oxy)-4,5-dihydroxybenzoyl)oxy)-4,5-dihydroxybenzoyl)oxy)-4,5-dihydroxybenzoyl)oxy)-4,5-dihydroxybenzoyl)oxy)-4,5-dihydroxybenzoic acid]
IC50: 63 nM

O=C(OC[C@H]1O[C@@H](OC(=O)c2cc(O)c(O)c(OC(=O)c3cc(O)c(O)c(OC(=O)c4cc(O)c(O)c(OC(=O)c5cc(O)c(O)c(OC(=O)c6cc(O)c(O)c(O)c6)c5)c4)c3)c2)[C@H](OC(=O)c2cc(O)c(O)c(OC(=O)c3cc(O)c(O)c(OC(=O)c4cc(O)c(O)c(OC(=O)c5cc(O)c(O)c(OC(=O)c6cc(O)c(O)c(O)c6)c5)c4)c3)c2)[C@@H]1OC(=O)c1cc(O)c(O)c(OC(=O)c2cc(O)c(O)c(OC(=O)c3cc(O)c(O)c(OC(=O)c4cc(O)c(O)c(OC(=O)c5cc(O)c(O)c(O)c5)c4)c3)c2)c1)c1cc(O)c(O)c(OC(=O)c2cc(O)c(O)c(OC(=O)c3cc(O)c(O)c(OC(=O)c4cc(O)c(O)c(OC(=O)c5cc(O)c(O)c(O)c5)c4)c3)c2)c1 [Compound 148, (2S,3R,4R,5R)-5-(((3-((3-((3-((3,4-dihydroxy-5-((3,4,5-trihydroxybenzoyl)oxy)benzoyl)oxy)-4,5-dihydroxybenzoyl)oxy)-4,5-dihydroxybenzoyl)oxy)-4,5-dihydroxybenzoyl)oxy)methyl)tetrahydrofuran-2,3,4-triyl tris(3-((3-((3-((3,4-dihydroxy-5-((3,4,5-trihydroxybenzoyl)oxy)benzoyl)oxy)-4,5-dihydroxybenzoyl)oxy)-4,5-dihydroxybenzoyl)oxy)-4,5-dihydroxybenzoate)]
IC50: 4 nM

O=C(Oc1cc(C(=O)Oc2cc(C(=O)O[C@H]3OC[C@@H](OC(=O)c4cc(O)c(O)c(OC(=O)c5cc(O)c(O)c(OC(=O)c6cc(O)c(O)c(O)c6)c5)c4)[C@H](OC(=O)c4cc(O)c(O)c(OC(=O)c5cc(O)c(O)c(OC(=O)c6cc(O)c(O)c(O)c6)c5)c4)[C@H]3OC(=O)c3cc(O)c(O)c(OC(=O)c4cc(O)c(O)c(OC(=O)c5cc(O)c(O)c(O)c5)c4)c3)cc(O)c2O)cc(O)c1O)c1cc(O)c(O)c(O)c1 [Compound 119, (2R,3R,4S,5R)-tetrahydro-2H-pyran-2,3,4,5-tetrayl tetrakis(3-((3,4-dihydroxy-5-((3,4,5-trihydroxybenzoyl)oxy)benzoyl)oxy)-4,5-dihydroxybenzoate)]
IC50: 5 nM
